Tests used:
[1] = system: Botrytis cinerea; experiment: Antifungal activity against Botrytis cinerea assessed as fungal growth inhibition at 100 ug/ml by micro-dilution method relative to control; type: functional; conditions: read-out: GI
[2] = system: Kluyveromyces marxianus; experiment: Antifungal activity against Candida pseudotropicalis assessed as fungal growth inhibition at 100 ug/ml by micro-dilution method relative to control; type: functional; conditions: read-out: GI
[3] = system: Geotrichum candidum; experiment: Antifungal activity against Geotrichum candidum assessed as fungal growth inhibition at 100 ug/ml by micro-dilution method relative to control; type: functional; conditions: read-out: GI
[4] = system: Fusarium solani; experiment: Antifungal activity against Fusarium solani assessed as fungal growth inhibition by micro-dilution method; type: functional
[5] = system: Candida tropicalis; experiment: Antifungal activity against Candida tropicalis assessed as fungal growth inhibition at 100 ug/ml by micro-dilution method relative to control; type: functional; conditions: read-out: GI
[6] = system: Geotrichum candidum; experiment: Antifungal activity against Geotrichum candidum assessed as fungal growth inhibition at 50 ug/ml by micro-dilution method relative to control; type: functional; conditions: read-out: GI
[7] = system: HEK293; experiment: Cytotoxicity against human HEK293 cells assessed as effect on cell viability measured after 72 hrs by MTS assay; type: cell-based; conditions: hek293, 72 h
[8] = system: Paecilomyces variotii; experiment: Antifungal activity against Paecilomyces variotii assessed as fungal growth inhibition at 100 ug/ml by micro-dilution method relative to control; type: functional; conditions: read-out: GI
[9] = system: Pichia kudriavzevii; experiment: Antifungal activity against Candida krusei assessed as fungal growth inhibition at 100 ug/ml by micro-dilution method relative to control; type: functional; conditions: read-out: GI
[10] = system: Sclerotinia sclerotiorum; experiment: Antifungal activity against Sclerotinia sclerotiorum assessed as fungal growth inhibition at 100 ug/ml by micro-dilution method relative to control; type: functional; conditions: read-out: GI
[11] = system: Cladosporium cladosporioides; experiment: Antifungal activity against Cladosporium cladosporioides assessed as fungal growth inhibition at 100 ug/ml by micro-dilution method relative to control; type: functional; conditions: read-out: GI
[12] = system: Alternaria alternata; experiment: Antifungal activity against Alternaria alternata assessed as fungal growth inhibition at 100 ug/ml by micro-dilution method relative to control; type: functional; conditions: read-out: GI
[13] = system: Penicillium ochrochloron; experiment: Antifungal activity against Penicillium ochrochloron assessed as fungal growth inhibition at 100 ug/ml by micro-dilution method relative to control; type: functional; conditions: read-out: GI
[14] = system: Geotrichum candidum; experiment: Antifungal activity against Geotrichum candidum assessed as fungal growth inhibition by micro-dilution method; type: functional
[15] = system: Fusarium solani; experiment: Antifungal activity against Fusarium solani assessed as fungal growth inhibition at 100 ug/ml by micro-dilution method relative to control; type: functional; conditions: read-out: GI
[16] = system: Aspergillus oryzae; experiment: Antifungal activity against Aspergillus oryzae assessed as fungal growth inhibition at 100 ug/ml by micro-dilution method relative to control; type: functional; conditions: read-out: GI

Compound `O=C1CC[C@@H](C(=O)N/N=C/c2ccc(CO)o2)N1` has an inhibition of growth at 100 µg/mL [1] of 0%, an inhibition of growth at 100 µg/mL [2] of 28% and an inhibition of growth at 100 µg/mL [3] of 88%. It also gave an MIC50 [4] of over 75 µg/mL, an inhibition of growth at 100 µg/mL [5] of 38% and an inhibition of growth at 50 µg/mL [6] of under 10%. For the same compound, the Activity [7] was “Non-Toxic”, the inhibition of growth at 100 µg/mL [8] was 45% and the inhibition of growth at 100 µg/mL [9] was 66%. The inhibition of growth at 100 µg/mL [10] was 0%, the inhibition of growth at 100 µg/mL [11] was 0% and the inhibition of growth at 100 µg/mL [12] was 42%. For the same compound, the inhibition of growth at 100 µg/mL [13] was 28%, the MIC50 [14] was over 75 µg/mL and the inhibition of growth at 100 µg/mL [15] was 72%. For the same compound, the inhibition of growth at 100 µg/mL [16] was 0%.
Work on `O=C1CC[C@@H](C(=O)N/N=C/c2ccccc2)N1` yielded an inhibition of growth at 100 µg/mL [1] of 0%, an inhibition of growth at 100 µg/mL [2] of 7% and an inhibition of growth at 100 µg/mL [3] of 83%. For the same compound, the inhibition of growth at 100 µg/mL [5] was 15%, the inhibition of growth at 50 µg/mL [6] was under 10% and the Activity [7] was “Non-Toxic”. It also gave an inhibition of growth at 100 µg/mL [8] of 46%, an inhibition of growth at 100 µg/mL [9] of 40% and an inhibition of growth at 100 µg/mL [10] of 0%. For the same compound, the inhibition of growth at 100 µg/mL [11] was 12%, the inhibition of growth at 100 µg/mL [12] was 20% and the inhibition of growth at 100 µg/mL [13] was 25%. It also gave an MIC50 [14] of over 75 µg/mL, an inhibition of growth at 100 µg/mL [15] of 59% and an inhibition of growth at 100 µg/mL [16] of 0%.

Source: ChEMBL document CHEMBL4622870, “Design, synthesis and evaluation of hydrazine and acyl hydrazone derivatives of 5-pyrrolidin-2-one as antifungal agents” (Bioorg Med Chem Lett, 2020)
